Tests used:
[1] = biological target: human A2a adenosine receptor (Homo sapiens (Human), UniProt P29274); test: A2a receptor affinity radioligand binding assay ([3H] SCH58261); conditions: membranes from HEK293 or CHO cells expressing human A2a receptor
Method in brief: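 Membranes from HEK293 or CHO cells expressing human A2a were preincubated 15–30 min at room temperature with compound, then incubated 60 min at room temperature with [3H]SCH58261 (diluted to 4 nM) in 50 mM Tris pH 7.4, 10 mM MgCl2, 0.005% Tween20. Bound radioactivity was collected by filtration; nonspecific binding defined with 1 μM ZM241385; IC50 from 4-parameter logistic fit.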

[2] = biological target: human A2b adenosine receptor (Homo sapiens (Human), UniProt P29275); test: A2b radioligand filtration binding assay; conditions: membranes from HEK293 cells expressing human A2b receptor
human A2b adenosine receptor, sequence (P29275 whole entry): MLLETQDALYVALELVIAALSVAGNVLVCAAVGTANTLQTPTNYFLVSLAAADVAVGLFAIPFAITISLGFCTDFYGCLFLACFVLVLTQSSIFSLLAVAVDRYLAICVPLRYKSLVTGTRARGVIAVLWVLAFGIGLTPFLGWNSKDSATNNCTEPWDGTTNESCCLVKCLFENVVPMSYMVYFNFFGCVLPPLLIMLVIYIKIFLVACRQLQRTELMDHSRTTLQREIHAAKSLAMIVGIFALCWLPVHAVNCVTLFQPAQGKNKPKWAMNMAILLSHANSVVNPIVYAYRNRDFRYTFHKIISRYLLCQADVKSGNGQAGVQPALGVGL
Method in brief: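 Membranes from HEK293 cells expressing human A2b receptor preincubated with compound 15 to 30 min at room temperature, then tritiated proprietary A2b antagonist (diluted to 14 nM before addition) added in PBS pH 7.4 for 60 min at room temperature. Bound radioactivity by filtration and scintillation; non-specific binding with 20 μM NECA; IC50 by 4-parameter logistic fit.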

human A2a adenosine receptor, sequence (P29274 whole entry): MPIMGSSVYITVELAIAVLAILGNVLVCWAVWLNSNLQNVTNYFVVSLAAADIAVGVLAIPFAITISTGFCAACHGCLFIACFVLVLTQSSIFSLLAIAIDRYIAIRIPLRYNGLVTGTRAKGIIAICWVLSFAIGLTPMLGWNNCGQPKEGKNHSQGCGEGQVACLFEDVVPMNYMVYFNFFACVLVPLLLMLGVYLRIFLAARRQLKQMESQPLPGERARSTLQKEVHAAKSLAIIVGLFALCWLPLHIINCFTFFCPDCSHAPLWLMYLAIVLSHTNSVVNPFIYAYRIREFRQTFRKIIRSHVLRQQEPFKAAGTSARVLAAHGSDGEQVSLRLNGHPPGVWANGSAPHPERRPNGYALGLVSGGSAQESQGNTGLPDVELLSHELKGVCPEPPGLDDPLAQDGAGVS

`CCn1cc([C@@]2(O)CCCC(c3nc4c5cc(F)c(OC)cc5nc(N)n4n3)C2)cn1` (single isomer, unassigned) [Example 146, (1R or 1S,3R or 3S)-3-(5-amino-9-fluoro-8-methoxy-[1,2,4]triazolo[1,5-c]quinazolin-2-yl)-1-(1-ethyl-1H-pyrazol-4-yl)cyclohexan-1-ol] gave an IC50 [1] of 2.1 nM and an IC50 [2] of 137 nM.
In the case of `CCn1cc([C@]2(O)CCC[C@H](c3nc4c5cc(F)c(OC)cc5nc(N)n4n3)C2)cn1` (single isomer, unassigned) [Example 147, (1S or 1R,3S or 3R)-3-(5-amino-9-fluoro-8-methoxy-[1,2,4]triazolo[1,5-c]quinazolin-2-yl)-1-(1-ethyl-1H-pyrazol-4-yl)cyclohexan-1-ol], the IC50 [1] is reported as 870 nM and the IC50 [2] is reported as 6330 nM.
For `CCn1cc([C@]2(O)CCC[C@@H](c3nc4c5cc(F)c(OC)cc5nc(N)n4n3)C2)cn1` (single isomer, unassigned) [Example 148, (1S or 1R,3R or 3S)-3-(5-amino-9-fluoro-8-methoxy-[1,2,4]triazolo[1,5-c]quinazolin-2-yl)-1-(1-ethyl-1H-pyrazol-4-yl)cyclohexan-1-ol], the IC50 [1] was 385 nM and the IC50 [2] was 4430 nM.
With `CCn1cc([C@]2(O)CCC[C@@H](c3nc4c5cc(F)c(OC)cc5nc(N)n4n3)C2)cn1` (single isomer, unassigned) [Example 149, (1S or 1R,3R or 3S)-3-(5-amino-9-fluoro-8-methoxy-[1,2,4]triazolo[1,5-c]quinazolin-2-yl)-1-(1-ethyl-1H-pyrazol-4-yl)cyclohexan-1-ol] the IC50 [1] was 1.8 nM and the IC50 [2] was 96.6 nM.
Molecule `COc1cccc2c1nc(N)n1nc([C@@H]3CCC[C@](O)(c4cnn(CC(C)(C)O)c4)C3)nc21` (single isomer, unassigned) [Example 150, (1R,3R or 1S,3S)-3-(5-amino-7-methoxy-[1,2,4]triazolo[1,5-c]quinazolin-2-yl)-1-(1-(2-hydroxy-2-methylpropyl)-1H-pyrazol-4-yl)cyclohexan-1-ol] has an IC50 [1] of 1.4 nM and an IC50 [2] of 181 nM.
For `COc1cc2nc(N)n3nc([C@@H]4CCCN(c5ncn(CC(C)(C)O)n5)C4)nc3c2cc1F` [Example 1, (R)-1-(3-(3-(5-amino-9-fluoro-8-methoxy-[1,2,4]triazolo[1,5-c]quinazolin-2-yl)piperidin-1-yl)-1H-1,2,4-triazol-1-yl)-2-methylpropan-2-ol], the IC50 [1] was 7.5 nM and the IC50 [2] was 554 nM.
`COc1cc2nc(N)n3nc([C@@H]4CCCN(c5cnn(C)c5)C4)nc3c2cc1F` [Example 2, (R)-9-fluoro-8-methoxy-2-(1-(1-methyl-1H-pyrazol-4-yl)piperidin-3-yl)-[1,2,4]triazolo[1,5-c]quinazolin-5-amine] was tested, and the IC50 [1] was 3.7 nM and the IC50 [2] was 9.4 nM.
`COc1cc2nc(N)n3nc([C@@H]4CCCN(c5cnn(C(C)(C)C)c5)C4)nc3c2cc1F` [Example 3, (R)-2-(1-(1-(tert-butyl)-1H-pyrazol-4-yl)piperidin-3-yl)-9-fluoro-8-methoxy-[1,2,4]triazolo[1,5-c]quinazolin-5-amine] was tested, and the IC50 [1] was 1.5 nM and the IC50 [2] was 180 nM.
`COc1cc2nc(N)n3nc([C@@H]4CCCN(c5cnn(C(C)C)c5)C4)nc3c2cc1F` [Example 4, (R)-9-fluoro-2-(1-(1-isopropyl-1H-pyrazol-4-yl)piperidin-3-yl)-8-methoxy-[1,2,4]triazolo[1,5-c]quinazolin-5-amine] was tested, and the IC50 [1] was 4.6 nM and the IC50 [2] was 2.6 nM.
Work on `COc1cc2nc(N)n3nc([C@@H]4CCCN(c5cnn(CC(F)(F)F)c5)C4)nc3c2cc1F` [Example 5, (R)-9-fluoro-8-methoxy-2-(1-(1-(2,2,2-trifluoroethyl)-1H-pyrazol-4-yl)piperidin-3-yl)[1,2,4]triazolo[1,5-c]quinazolin-5-amine] yielded an IC50 [1] of 3.3 nM and an IC50 [2] of 1.6 nM.
`COc1cc2nc(N)n3nc([C@@H]4CCCN(c5cn(C)nn5)C4)nc3c2cc1F` [Example 6, (R)-9-fluoro-8-methoxy-2-(1-(1-methyl-1H-1,2,3-triazol-4-yl)piperidin-3-yl)-[1,2,4]triazolo[1,5-c]quinazolin-5-amine] gave an IC50 [1] of 2 nM and an IC50 [2] of 85.9 nM.
`COc1cc2nc(N)n3nc([C@@H]4CCCN(c5cnn(CC(C)(C)O)c5)C4)nc3c2cc1F` [Example 7, (R)-1-(4-(3-(5-amino-9-fluoro-8-methoxy-[1,2,4]triazolo[1,5-c]quinazolin-2-yl)piperidin-l-yl)-1H-pyrazol-1-yl)-2-methylpropan-2-ol] showed an IC50 [1] of 3.7 nM and an IC50 [2] of 104 nM.
In the case of `COc1cc2nc(N)n3nc([C@@H]4CCCN(c5cnn(CC(C)(C)O)c5C)C4)nc3c2cc1F` [Example 8, (R)-1-(4-(3-(5-amino-9-fluoro-8-methoxy-[1,2,4]triazolo [1,5-c]quinazolin-2-yl)piperidin-l-yl)-5-methyl-1H-pyrazol-1-yl)-2-methylpropan-2-ol], the IC50 [1] is reported as 4.5 nM and the IC50 [2] is reported as 149 nM.
With `COc1cc2nc(N)n3nc([C@@H]4CCCN(c5cn(CC(C)(C)O)nc5C)C4)nc3c2cc1F` [Example 9, (R)-1-(4-(3-(5-amino-9-fluoro-8-methoxy-[1,2,4]triazolo [1,5-c]quinazolin-2-yl)piperidin-1-yl)-3-methyl-1H-pyrazol-1-yl)-2-methylpropan-2-ol] the IC50 [1] was 0.5 nM and the IC50 [2] was 136 nM.
Molecule `COc1cc2nc(N)n3nc([C@@H]4CCCN(c5cnn(CC6(O)CCC6)c5)C4)nc3c2cc1F` [Example 10, (R)-1-((4-(3-(5-amino-9-fluoro-8-methoxy-[1,2,4]triazolo [1,5-c]quinazolin-2-yl)piperidin-1-yl)-1H-pyrazol-1-yl)methyl)cyclobutan-1-ol] has an IC50 [1] of 3.5 nM and an IC50 [2] of 63.4 nM.
In the case of `COc1cc2nc(N)n3nc([C@@H]4CCCN(c5cn(C(C)(C)CO)nc5C)C4)nc3c2cc1F` [Example 11, (R)-2-(4-(3-(5-amino-9-fluoro-8-methoxy-[1,2,4]triazolo[1,5-c]quinazolin-2-yl)piperidin-1-yl)-3-methyl-1H-pyrazol-1-yl)-2-methylpropan-1-ol], the IC50 [1] is reported as 0.5 nM and the IC50 [2] is reported as 56 nM.
`COc1cc2nc(N)n3nc([C@@H]4CCCN(c5cnn([C@H]6C[C@@](C)(O)C6)c5)C4)nc3c2cc1F` [Example 14, (1s,3s)-3-(4-((R)-3-(5-amino-9-fluoro-8-methoxy-[1,2,4]triazolo[1,5-c]quinazolin-2-yl)piperidin-l-yl)-1H-pyrazol-1-yl)-methylcyclobutan-1-ol] gave an IC50 [1] of 3 nM and an IC50 [2] of 225 nM.
`COc1cc2nc(N)n3nc([C@@H]4CCCN(c5cnn(CC6(C)COC6)c5)C4)nc3c2cc1F` [Example 15, (R)-9-fluoro-8-methoxy-2-(1-(1-((3-methyloxetan-3-yl)methyl)-1H-pyrazol-4-yl)piperidin-3-yl)[1,2,4] triazolo[1,5-c]quinazolin-5-amine] was tested, and the IC50 [1] was 38.4 nM and the IC50 [2] was 905 nM.
In the case of `COc1cc2nc(N)n3nc([C@@H]4CCCN(c5cnn(C6CCOCC6)c5C)C4)nc3c2cc1F` [Example 16, (R)-9-fluoro-8-methoxy-2-(1-(5-methyl-1-(tetrahydro-2H-pyran-4-yl)-1H-pyrazol-4-yl)piperidin-3-yl)-[1,2,4]triazolo[1,5-c]quinazoliu-5-amine], the IC50 [1] is reported as 0.8 nM and the IC50 [2] is reported as 426 nM.
Work on `COc1cc2nc(N)n3nc([C@@H]4CCCN(c5cn(C6CCOCC6)nc5C)C4)nc3c2cc1F` [Example 17, (R)-9-fluoro-8-methoxy-2-(1-(3-methyl-1-(tetrahydro-2H-pyran-4-yl)-1H-pyrazol-4-yl)piperidin-3-yl) [1,2,4]triazolo[1,5-c]quinazolin-5-amine] yielded an IC50 [1] of 1.7 nM and an IC50 [2] of 434 nM.
`COc1cc2nc(N)n3nc([C@@H]4CCCN(c5cnn(C6CCOCC6)c5C(F)F)C4)nc3c2cc1F` [Example 18, (R)-2-(1-(5-(difluoromethyl)-1-(tettahydro-2H-pyran-4-yl)-1H-pyrazol-4-yl)piperidin-3-yl)-9-fluoro-8-methoxy-[1,2,4]triazolo[1,5-c]quinazolin-5-amine] was tested, and the IC50 [1] was 0.7 nM and the IC50 [2] was 13.5 nM.
Work on `COc1cc2nc(N)n3nc([C@@H]4CCCN(c5cn(C6CCOCC6)nc5C(F)F)C4)nc3c2cc1F` [Example 19, (R)-2-(1-(3-(difluoromethyl)-1-(tetrahydro-2H-pyran-4-yl)-1H-pyrazol-4-yl)piperidin-3-yl)-9-fluoro-8-methoxy-[1,2,4]triazolo[1,5-c]quinazolin-5-amine] yielded an IC50 [1] of 0.7 nM and an IC50 [2] of 87.3 nM.
`CCn1cc(N2CCC[C@@H](c3nc4c5cc(F)c(OC)cc5nc(N)n4n3)C2)c(CO)n1` [Example 20, (R)-(4-(3-(5-amino-9-fluoro-8-methoxy-[1,2,4]triazolo[1,5-c]quinazolin-2-yl)piperidin-1-yl)-ethyl-1H-pyrazol-3-yl)methanol] showed an IC50 [1] of 5.8 nM and an IC50 [2] of 163 nM.
In the case of `COc1cc2nc(N)n3nc([C@@H]4CCCN(c5cn(CC(C)(C)O)nc5C5CC5)C4)nc3c2cc1F` [Example 21, (R)-1-(4-(3-(5-amino-9-fluoro-8-methoxy-[1,2,4]triazolo[1,5-c]quinazolin-2-yl)piperidin-1-yl)-3-cyclopropyl-1H-pyrazol-1-yl)-2-methylpropan-2-ol], the IC50 [1] is reported as 0.3 nM and the IC50 [2] is reported as 515 nM.
Molecule `COc1cc2nc(N)n3nc([C@@H]4CCCN(c5ccc(OC(F)F)nc5)C4)nc3c2cc1F` [Example 22, (R)-2-(1-(6-(difluoromethoxy)pyridin-3-yl)piperidin-3-yl)-9-fluoro-8-methoxy[1,2,4]triazolo[1,5-c]quinazolin-5-amine] has an IC50 [1] of 8.6 nM and an IC50 [2] of 27.6 nM.
Molecule `COc1cc2nc(N)n3nc([C@@H]4CCCN(c5ccc(OC(C)C)nc5)C4)nc3c2cc1F` [Example 23, (R)-9-fluoro-2-(1-(6-isopropoxypyridin-3-yl)piperidin-3-yl)-8-methoxy-[1,2,4]triazolo[1,5-c]quinazolin-5-amine] has an IC50 [1] of 2 nM and an IC50 [2] of 15.9 nM.

From patent US11312719B2, “9-substituted amino triazolo quinazoline derivatives as adenosine receptor antagonists, pharmaceutical compositions and their use” (Merck Sharp & Dohme Corp., priority 2018, dated 2022)
